In PubChem BioAssay (NCI):
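How tested: cells in 96-well plates exposed to compound for 48 hours at five concentrations. The concentration for 50% growth inhibition is given as GI50. TGI is the concentration that stops growth completely.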

What follows are compounds tested on NCI-H460 lung (assay: NCI anticancer screen, dose series, 48 h).

SMILES | GI50 | TGI
Cc1cc(=O)n2[nH]c(-c3ccc(C(C)(C)C)cc3)cc2n1 | 3.03 µM | 38 µM
O=C(O)c1cc(C(=O)O)cc(N2C(=O)c3ccccc3C2=O)c1 |  | > 100 µM
CNC(=O)c1ccccc1Nc1nc(Nc2ccc(N3CCOCC3)cc2OC)ncc1Cl | 0.361 µM | > 34.4 µM
O=C(N/C(=C\c1cc(Cl)ccc1Cl)c1nc2[nH]c(=S)[nH]c(=O)c2[nH]1)c1ccccc1 |  | > 100 µM
O=C(CN1CCN(c2cc3c(cc2F)c(=O)c(C(=O)N/N=C/c2ccccc2O)cn3C2CC2)CC1)N/N=C\c1ccccc1O | 0.367 µM | > 48.7 µM
C=C(CNCCO)[C@@H]1CC[C@]2(CO)CC[C@]3(C)[C@H](CC[C@@H]4[C@@]5(C)CCC(N)C(C)(C)[C@@H]5CC[C@]43C)[C@@H]12 (stereo partly specified) | 1.94 µM | 4.12 µM
CC(=O)C(CN(C(C)C)C(C)C)C(c1ccccc1)c1c(O)c2ccccc2oc1=O (stereo unspecified) |  | > 100 µM
NC(CCc1nc(-c2ccc(Cl)cc2)cs1)C(=O)O (stereo unspecified) |  | > 100 µM
O=C1NC2(CCCCC2)C2CCCCC(O)C12 (stereo unspecified) |  | > 100 µM
COc1ccc(-n2/c(=N/C(=S)N(C)C)ss/c2=N\C(=S)N(C)C)cc1 |  | 11.2 µM
COc1cc(C(=O)/C=C/c2sc(Cl)nc2Cl)cc(OC)c1OC | 2.29 µM | 5.29 µM
COc1cc2nc(C)nc(N[C@H](C)c3cc(N)cc(C(F)(F)F)c3)c2cc1O[C@H]1CCOC1 | 18.5 µM | 36.6 µM

The compounds below were run on HT29 colon (assay: NCI anticancer screen, dose series, 48 h).

SMILES | GI50 | TGI
CCCCCCCC(=O)SCC/C=C/[C@@H]1CC(=O)NCc2cccc(n2)C2=N[C@@](C)(CS2)C(=O)N[C@@H](C(C)C)C(=O)N1 | 0.181 µM | 7.23 µM
COc1cc2c(c(OC)c1O)C(=O)C(OC)C(c1ccc(O)c(O)c1)O2 (stereo unspecified) | 6.1 µM | > 67.7 µM
Cn1ccnc1C(=O)/C=C/c1ccc(CC(=O)Nc2ccc(Br)cc2)cc1 | 4.05 µM | 9.96 µM
Cc1cnc(NC(=O)C(Cc2ccccc2)NC(=O)c2ccccc2)s1 (stereo unspecified) | 26 µM | > 100 µM
CCOC(=O)COc1cccc2c1C(=O)CCO2 |  | > 100 µM
CC(C)c1ccc(C(C)C(=O)N(CC2=C(C(C)c3ccccn3)c3ccccc3C2)C(C)C)cc1 (stereo unspecified) | 1.6 µM | 3.77 µM
CSc1ccc(/C=C2\CN(C)C/C(=C\c3ccc(SC)cc3)C2=O)cc1 |  | 67 µM
Cc1nc2c(nc1C)C(=O)c1ccccc1C2=O |  | 11.7 µM
O[C@H]1[C@H]2c3cc4c(cc3CN3CCC(=C[C@@H]1O)[C@H]23)OCO4 |  | 30.6 µM
O=C(Nc1ccc(I)cc1)c1cc([N+](=O)[O-])ccc1O | 13.3 µM | 89.7 µM
Cc1cc(=O)n2[nH]c(-c3ccc(C(C)(C)C)cc3)cc2n1 | 5.12 µM | > 100 µM
O=C(O)c1cc(C(=O)O)cc(N2C(=O)c3ccccc3C2=O)c1 |  | > 100 µM
CNC(=O)c1ccccc1Nc1nc(Nc2ccc(N3CCOCC3)cc2OC)ncc1Cl | 0.0714 µM | 4.73 µM
O=C(N/C(=C\c1cc(Cl)ccc1Cl)c1nc2[nH]c(=S)[nH]c(=O)c2[nH]1)c1ccccc1 |  | 39.6 µM
O=C(CN1CCN(c2cc3c(cc2F)c(=O)c(C(=O)N/N=C/c2ccccc2O)cn3C2CC2)CC1)N/N=C\c1ccccc1O | 1.01 µM | > 100 µM
C=C(CNCCO)[C@@H]1CC[C@]2(CO)CC[C@]3(C)[C@H](CC[C@@H]4[C@@]5(C)CCC(N)C(C)(C)[C@@H]5CC[C@]43C)[C@@H]12 (stereo partly specified) | 1.86 µM | 3.89 µM
CC(=O)C(CN(C(C)C)C(C)C)C(c1ccccc1)c1c(O)c2ccccc2oc1=O (stereo unspecified) |  | > 100 µM
NC(CCc1nc(-c2ccc(Cl)cc2)cs1)C(=O)O (stereo unspecified) |  | > 100 µM
O=C1NC2(CCCCC2)C2CCCCC(O)C12 (stereo unspecified) |  | > 100 µM
COc1ccc(-n2/c(=N/C(=S)N(C)C)ss/c2=N\C(=S)N(C)C)cc1 |  | 5.97 µM
COc1cc(C(=O)/C=C/c2sc(Cl)nc2Cl)cc(OC)c1OC | 2.21 µM | 5.53 µM
COc1cc2nc(C)nc(N[C@H](C)c3cc(N)cc(C(F)(F)F)c3)c2cc1O[C@H]1CCOC1 | 13.4 µM | 28.4 µM

The compounds below were run on EKVX NSCLC (assay: NCI anticancer screen, dose series, 48 h).

SMILES | GI50 | TGI
CCCCCCCC(=O)SCC/C=C/[C@@H]1CC(=O)NCc2cccc(n2)C2=N[C@@](C)(CS2)C(=O)N[C@@H](C(C)C)C(=O)N1 | 1.75 µM | > 33.3 µM
COc1cc2c(c(OC)c1O)C(=O)C(OC)C(c1ccc(O)c(O)c1)O2 (stereo unspecified) | 15.2 µM | > 100 µM
Cn1ccnc1C(=O)/C=C/c1ccc(CC(=O)Nc2ccc(Br)cc2)cc1 | 2.76 µM | 11.7 µM
Cc1cnc(NC(=O)C(Cc2ccccc2)NC(=O)c2ccccc2)s1 (stereo unspecified) | 19.5 µM | 47.6 µM
CCOC(=O)COc1cccc2c1C(=O)CCO2 |  | > 100 µM
CC(C)c1ccc(C(C)C(=O)N(CC2=C(C(C)c3ccccn3)c3ccccc3C2)C(C)C)cc1 (stereo unspecified) | 1.72 µM | 8.31 µM
CSc1ccc(/C=C2\CN(C)C/C(=C\c3ccc(SC)cc3)C2=O)cc1 |  | > 100 µM
Cc1nc2c(nc1C)C(=O)c1ccccc1C2=O |  | 41.5 µM
O[C@H]1[C@H]2c3cc4c(cc3CN3CCC(=C[C@@H]1O)[C@H]23)OCO4 |  | 10.8 µM
O=C(Nc1ccc(I)cc1)c1cc([N+](=O)[O-])ccc1O | 6.72 µM | > 100 µM
Cc1cc(=O)n2[nH]c(-c3ccc(C(C)(C)C)cc3)cc2n1 | 3.88 µM | 59.1 µM
O=C(O)c1cc(C(=O)O)cc(N2C(=O)c3ccccc3C2=O)c1 |  | > 100 µM
CNC(=O)c1ccccc1Nc1nc(Nc2ccc(N3CCOCC3)cc2OC)ncc1Cl | 0.274 µM | > 24.7 µM
O=C(N/C(=C\c1cc(Cl)ccc1Cl)c1nc2[nH]c(=S)[nH]c(=O)c2[nH]1)c1ccccc1 |  | > 79.6 µM
O=C(CN1CCN(c2cc3c(cc2F)c(=O)c(C(=O)N/N=C/c2ccccc2O)cn3C2CC2)CC1)N/N=C\c1ccccc1O | 1.11 µM | > 100 µM
C=C(CNCCO)[C@@H]1CC[C@]2(CO)CC[C@]3(C)[C@H](CC[C@@H]4[C@@]5(C)CCC(N)C(C)(C)[C@@H]5CC[C@]43C)[C@@H]12 (stereo partly specified) | 4.59 µM | 18.1 µM
CC(=O)C(CN(C(C)C)C(C)C)C(c1ccccc1)c1c(O)c2ccccc2oc1=O (stereo unspecified) |  | > 100 µM
NC(CCc1nc(-c2ccc(Cl)cc2)cs1)C(=O)O (stereo unspecified) |  | > 100 µM
O=C1NC2(CCCCC2)C2CCCCC(O)C12 (stereo unspecified) |  | > 100 µM
COc1ccc(-n2/c(=N/C(=S)N(C)C)ss/c2=N\C(=S)N(C)C)cc1 |  | > 100 µM
COc1cc(C(=O)/C=C/c2sc(Cl)nc2Cl)cc(OC)c1OC | 1.67 µM | 3.12 µM
COc1cc2nc(C)nc(N[C@H](C)c3cc(N)cc(C(F)(F)F)c3)c2cc1O[C@H]1CCOC1 | 11.1 µM | 26.5 µM
